Measured values: the supplement of paper PMC10307832

Assays:
Assay in all cases: relative viability (nuclei count vs DMSO), 5 days (fraction); higher = more cells survive
[1] = compound: C1=CC=C(C(=C1)C2=CC=C(C=C2)C3=CSC4=C3C(=C(C(=O)N4)C#N)O)O + COc1cccc2cc(-c3nc([C@H]4CC[C@H](C(=O)O)CC4)n4ncnc(N)c34)[nH]c12 [OSI-027] (partner 0.5 µM)
In short: (§1)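 The day after seeding in 1536-well plates, lung cancer cell lines were treated by pin tool with a single drug, or with a fixed anchor-drug dose together with five library-drug doses (not always all listed) in √10 steps. After 5 days, a combined fix-and-stain solution (final 0.05% Triton X-100, 1% formaldehyde, 1 ug/ml Hoechst) was added. Nuclei counted on 4× images gave relative viability as treated counts over vehicle counts, reported as the median of duplicate plates.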

[2] = compound: O=C(CCCCCCNC(=O)c1cnc(N(c2ccccc2)c2ccccc2)nc1)NO [Ricolinostat] + COc1cccc2cc(-c3nc([C@H]4CC[C@H](C(=O)O)CC4)n4ncnc(N)c34)[nH]c12 [OSI-027] (partner 0.5 µM)
In short: as §1

[3] = compound: CC1=CN2C(=O)C=C(N=C2C(=C1)C(C)NC3=CC=CC=C3)N4CCOCC4 [TGX 221] + NC(=O)Nc1cc(-c2cccc(F)c2)sc1C(=O)N[C@H]1CCCNC1 [AZD7762] (partner 0.2 µM)
In short: as §1

[4] = compound: O=C(CCCCCCNC(=O)c1cnc(N(c2ccccc2)c2ccccc2)nc1)NO [Ricolinostat] + N=C(N)NC(=N)NCCc1ccccc1 [Phenformin] (partner 250 µM)
In short: as §1

Cell Line	relative viability ([1]; first compound 0.08 µM)	relative viability ([1]; first compound 0.253 µM)	relative viability ([1]; first compound 0.8 µM)	relative viability ([1]; first compound 2.53 µM)	relative viability ([1]; first compound 8 µM)	relative viability ([2]; first compound 0.253 µM)	relative viability ([2]; first compound 0.8 µM)	relative viability ([2]; first compound 2.53 µM)	relative viability ([3]; first compound 0.08 µM)	relative viability ([3]; first compound 0.253 µM)	relative viability ([3]; first compound 0.8 µM)	relative viability ([3]; first compound 2.53 µM)	relative viability ([3]; first compound 8 µM)	relative viability ([4]; first compound 0.253 µM)	relative viability ([4]; first compound 0.8 µM)	relative viability ([4]; first compound 2.53 µM)	relative viability ([2]; first compound 0.08 µM)	relative viability ([4]; first compound 0.08 µM)
NCI-H1793	0.281	0.378	0.267	0.263	0.252	0.252	0.284	0.221	0.295	0.303	0.313	0.347	0.266	0.438	0.355	0.369	–	–
NCI-H1915	0.645	0.622	–	0.657	0.534	0.65	0.623	0.421	0.655	0.665	0.665	0.596	0.712	0.358	0.347	0.363	0.525	0.324
NCI-H1944	0.39	0.436	0.336	0.367	0.4	0.405	0.34	0.292	–	0.501	0.453	0.513	0.455	0.18	0.174	0.151	0.321	0.181
NCI-H1975	0.535	0.823	0.689	0.709	0.676	0.84	0.76	0.599	0.688	0.694	0.668	0.662	0.557	0.413	0.396	0.401	0.638	0.377
NCI-H1993	0.442	0.539	0.543	0.595	0.595	0.532	0.648	0.466	0.676	0.657	0.685	0.899	0.785	0.48	0.508	0.339	–	–
NCI-H2085	0.866	1.02	0.661	0.627	0.512	0.72	0.627	0.414	0.96	0.769	0.583	0.37	0.397	0.705	0.66	0.58	–	–
NCI-H2087	0.551	0.772	0.568	0.57	0.358	0.603	0.545	0.45	1.04	1.23	1.37	1.2	1.21	0.441	0.405	0.239	–	–
NCI-H2126	0.639	0.718	0.654	0.737	0.708	0.847	0.658	0.692	0.943	0.907	1.04	0.966	1.15	0.533	0.521	0.499	0.489	–
NCI-H2170	0.76	0.74	0.676	0.677	0.754	0.718	0.725	0.891	0.81	0.825	0.861	0.871	0.917	0.426	0.407	0.373	0.656	0.394
NCI-H2342	0.555	0.702	0.561	0.664	0.555	0.588	0.575	0.633	0.421	0.448	0.496	0.489	0.524	0.578	0.614	0.713	0.515	0.475
NCI-H2347	0.454	0.572	0.348	0.419	0.378	0.451	0.364	0.319	0.639	0.61	0.639	0.583	0.547	0.32	0.337	0.302	0.293	0.295
NCI-H2405	0.648	0.656	0.607	0.679	0.65	0.71	0.671	0.568	0.706	0.665	0.724	0.665	0.547	0.44	0.416	0.358	0.481	0.356
NCI-H3122	0.836	1.07	1.09	1.33	0.774	0.992	0.99	1.06	0.974	0.925	1.01	0.994	0.981	0.378	0.369	0.318	–	–
PC-3 [JPC-3]	0.637	0.777	0.704	0.93	0.719	0.768	0.708	0.491	0.689	0.72	0.817	0.755	0.758	0.472	0.488	0.475	–	–
PC-14	0.924	0.986	0.874	0.978	0.46	0.72	0.769	0.511	0.316	0.329	0.34	0.33	0.289	0.532	0.477	0.37	0.728	0.364
RERF-LC-KJ	0.562	0.755	0.561	0.551	0.457	0.569	0.47	0.438	0.909	0.926	0.965	0.863	0.949	0.372	0.406	0.374	0.578	0.452
SW 900	0.461	0.628	0.426	0.462	0.356	0.808	0.562	0.535	–	0.598	0.515	0.444	0.469	0.635	0.433	0.48	0.462	0.441
